The values below come from patent US20230348369A1 (Cytokinetics, Inc., priority 2020, published 2023).

Assay [1] has as its target T1, endogenous NAMPT (Homo sapiens, UniProt P43490).
T1 construct: stimulate the endogenous NAMPT in a native cellular environment; endogenous in cells; host or cells: SH-SY5Y neuroblastoma cells
The assay is described as follows: Cellular NAD+ modulation assay in neuroblastoma SH-SY5Y cells. Format: cell-based. The protocol:
The compounds described herein were also assayed for their ability to stimulate the endogenous NAMPT in a native cellular environment in the cellular NAD+ modulation assay, which measures the ability of the compound to modulate cellular NAD levels. Increased levels of NAD are expected by compounds that permeate the cells and activate the catalytic activity of the endogenous NAMPT.
Neuroblastoma SH-SY5Y cells were grown in 1:1 mixture of Eagle's Minimum Essential Medium and F12 Medium, along with 10% fetal bovine serum, in a humidified incubator with an atmosphere of 95% air and 5% CO2 at 37° C. The assays were initiated by plating 20 μL of SH-SY5Y cells in culture medium with 0.1% fetal bovine serum, at a density of 5000 cells per well to a 384-well Corning™ BioCoat™ Poly-D-Lysine Multiwell Plates. The plates were incubated in the 37° C. incubators for a period of 5 hours. Compounds in DMSO were added to the plates in a volume of 120 nL using the Labcyte Echo Liquid Handlers. […] The plates are then incubated for 40 hours. 30 μL of a readout-solution containing 0.2 U/mL Diaphorase enzyme, 40 uM resazurin, 10 uM FMN, 0.8 U/mL Alcohol dehydrogenase, 3% ethanol, 0.4 mg/mL bovine serum albumin, 0.2% Triton X-100 in 100 mM Tris-HCl, 30 mM EDTA, pH 8.4. The plates were read for fluorescence (Excitation/Emission=540 nm/590 nm) using an EnVision plate reader after 60 mins of incubation at ambient temperature.

Assay [2] deals with human NAMPT (Homo sapiens, UniProt P43490). In words: Human recombinant enzyme assay (NMN fluorescence biochemical assay, activation of NAMPT). In outline:
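Activation of recombinant human NAMPT (6 nM) with 2.5 mM ATP, 20 μM PRPP and 150 μM nicotinamide in 50 mM HEPES pH 7.2, 1 mM DTT, 1 mM CHAPS, 50 mM NaCl, 100 mM MgCl2; 60 min, ambient temperature. NMN formed was derivatized with acetophenone/KOH/formic acid, fluorescence read at 355/460 nm after 40 min.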

Where [3] appears, read: Table B, SH-SY5Y cells, cellular NAD levels, doxorubicin, 40 hours.
[4] abbreviates: Table A, human recombinant NAMPT, NMN formation, 60 min.
[5] abbreviates: Table A, human recombinant NAMPT, NMN formation, 60 min, read-out: EC50 Human.

Like-named read-outs stand apart in the source and are kept apart here.

Sequence of human NAMPT (P43490 whole entry): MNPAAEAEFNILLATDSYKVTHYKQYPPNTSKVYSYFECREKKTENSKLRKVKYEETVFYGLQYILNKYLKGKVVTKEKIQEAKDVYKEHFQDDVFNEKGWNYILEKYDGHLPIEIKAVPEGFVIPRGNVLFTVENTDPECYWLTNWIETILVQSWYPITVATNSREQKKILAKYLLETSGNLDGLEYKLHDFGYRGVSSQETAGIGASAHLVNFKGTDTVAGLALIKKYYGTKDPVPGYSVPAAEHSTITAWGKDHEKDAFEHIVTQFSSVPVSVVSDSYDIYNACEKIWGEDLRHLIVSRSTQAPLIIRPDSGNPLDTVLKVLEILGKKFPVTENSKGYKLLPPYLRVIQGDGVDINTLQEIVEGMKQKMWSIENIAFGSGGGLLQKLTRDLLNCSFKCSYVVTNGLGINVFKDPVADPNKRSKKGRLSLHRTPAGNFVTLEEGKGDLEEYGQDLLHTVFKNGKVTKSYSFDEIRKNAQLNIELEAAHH
T1 sequence (P43490 whole entry): as above

Compound `O=C(NCCCCC1CCN(C(=O)c2ccccc2)CC1)NCc1ccc(CO)cc1` [Compound 22, 1-(4-(1-benzoylpiperidin-4-yl)butyl)-3-(4-(hydroxymethyl)benzyl)urea] registered an AC0.3 in assay [1] (setting [3]) of 0.4 µM. Moreover, the EC50 turned out to be 0.1 µM in assay [1] (Table B, SH-SY5Y cells, cellular NAD levels, doxorubicin, 40 hours, read-out: EC50) and 1.1 µM in assay [2] (setting [5]). The “AC1.4 Human” value in assay [2] (setting [4]) worked out at 0.1 µM.
In the case of `O=C(NCc1ccc(Cl)cc1)NC1CC2(C1)CC(NS(=O)(=O)c1ccccc1)C2` (stereo not drawn) [Compound 121], the EC50 in assay [1] was found to be 1.2 µM; in assay [2], 5.7 µM. The compound also yielded an AC0.3 in assay [1] (setting [3]) of 0.6 µM. The “AC1.4 Human” value in assay [2] (setting [4]) stood at 1.5 µM.
With `CN1CCC(C(=O)N2CCC(CCCCNC(=O)NCc3ccc(Cl)cc3)CC2)CC1=O` (stereo not drawn) [Compound 302, 1-(4-chlorobenzyl)-3-(4-(1-(1-methyl-2-oxopiperidine-4-carbonyl)piperidin-4-yl)butyl)urea], the “AC1.4 Human” value in assay [2] (setting [4]) was 2.0 µM. The EC50 in assay [2] (setting [5]) worked out at 7.9 µM.
For `NC(=O)c1ccc(CNC(=O)NC2CC3(C2)CC(Nc2ccccn2)C3)cc1` (stereo not drawn) [Compound 26, 4-((3-(6-(pyridin-2-ylamino)spiro[3.3]heptan-2-yl)ureido)methyl)benzamide], in assay [2], the EC50 was determined as 16.7 µM. The “AC1.4 Human” value in assay [2] (setting [4]) worked out at 2.0 µM.
For `CC(C)(C)OC(=O)NC1CC2(CC(NC(=O)NCc3ccncc3)C2)C1` (stereo not drawn) [Compound 6, tert-butyl (6-(3-(pyridin-4-ylmethyl)ureido)spiro[3.3]heptan-2-yl)carbamate], in assay [2] (setting [4]), the “AC1.4 Human” value turned out to be 4.5 µM. The EC50 in assay [2] (setting [5]) was found to be 26.8 µM.
Taken in the same sequence, the figures for `COc1ccc(CNC(=O)NC2CC3(C2)CN(C(=O)C2CCCN(C(=O)OC(C)(C)C)C2)C3)cc1` (stereo not drawn) [Compound 136, tert-butyl 3-(6-(3-(4-methoxybenzyl)ureido)-2-azaspiro[3.3]heptane-2-carbonyl)piperidine-1-carboxylate] were 9.8 µM and 57.7 µM.
The like results for `NC(=O)c1ccc(CNC(=O)NC2CC3(CC(NCc4ccccn4)C3)C2)cc1` (stereo not drawn) [Compound 34, 4-((3-(6-((pyridin-2-ylmethyl)amino)spiro[3.3]heptan-2-yl)ureido)methyl)benzamide] were, in that order, 12.1 µM and 37.7 µM.
Taken in the same sequence, the figures for `CC(C)(O)CN1CCN(C(=O)CC2CC3(C2)CC(NC(=O)NCc2ccc(Cl)cc2)C3)CC1` (stereo not drawn) [Compound 234, 1-(4-chlorobenzyl)-3-(6-(2-(4-(2-hydoxy-2-methylpropyl)piperazin-1-yl)-2-oxoethyl)spiro[3.3]heptan-2-yl)urea] were 3.7 µM and 8.6 µM.
On to `O=C(NCc1ccc(Cl)cc1)NC1CC2(C1)CC(OCc1ccncc1)C2` (stereo not drawn) [Compound 348, 1-(4-chlorobenzyl)-3-(6-(pyridin-4-ylmethoxy)spiro[3.3]heptan-2-yl)urea], for which the “AC1.4 Human” value in assay [2] (setting [4]) amounted to 5.0 µM. In assay [2] (setting [5]), the EC50 stood at 5.9 µM.
The like results for `COc1ccc(CNC(=O)NC2CC3(C2)CC(c2nnc(-c4ccccc4)o2)C3)cc1` (stereo not drawn) [Compound 325, 1-(4-Methoxybenzyl)-3-(6-(5-phenyl-1,3,4-oxadiazol-2-yl)spiro[3.3]heptan-2-yl)urea] were, in that order, 2.4 µM and 30.6 µM.
The like results for `COc1ccc(CNC(=O)NC2CC3(C2)CC(C(=O)N2CCN(Cc4ccccn4)CC2)C3)cc1` (stereo not drawn) [Compound 125, 1-(4-methoxybenzyl)-3-(6-(4-(pyridin-2-ylmethyl)piperazine-1-carbonyl)spiro[3.3]heptan-2-yl)urea] were, in that order, 7.9 µM and 51.2 µM.
Taken in the same sequence, the figures for `COc1ccc(CNC(=O)NC2CC3(C2)CC(C(=O)N2CCN(C)CC2)C3)cc1` (stereo not drawn) [Compound 230, 1-(4-methoxybenzyl)-3-(6-(4-methylpiperazine-1-carbonyl)spiro[3.3]heptan-2-yl)urea] were 1.8 µM and 30.9 µM.
Turning to `O=C(NCc1ccc(Cl)cc1)NC1CC2(CC(CN3CCC[C@@H]3c3cccnc3)C2)C1` (stereo partly drawn) [Compound 239, (R)-1-(4-chlorobenzyl)-3-(6-((2-(pyridin-3-yl)pyrrolidin-1-yl)methyl)spiro[3.3]heptan-2-yl)urea], in assay [2] (setting [4]), the “AC1.4 Human” value was found to be 2.1 µM. For the same compound, the EC50 in assay [2] (setting [5]) was determined as 22.5 µM.
Taken in the same sequence, the figures for `COc1ccc(CNC(=O)NC2CC3(C2)CN(C(=O)c2ccc(=O)n(C)c2)C3)cc1` [Compound 144, 1-(4-methoxybenzyl)-3-(2-(1-methyl-6-oxo-1,6-dihydropyridine-3-carbonyl)-2-azaspiro[3.3]heptan-6-yl)urea] were 16.0 µM and 54 µM.
Turning to `O=C(NCCCCC1CCN(C(=O)c2ccccn2)CC1)NCc1ccc(Cl)cc1` [Compound 292, 1-(4-chlorobenzyl)-3-(4-(1-picolinoylpiperidin-4-yl)butyl)urea], the “AC1.4 Human” value in assay [2] (setting [4]) worked out at 0.5 µM. Also, the EC50 in assay [2] (setting [5]) was found to be 2 µM.
The like results for `Cc1ccc(C(=O)N2CC[C@]3(C2)C[C@@H](NC(=O)NCc2ccc(Cl)cc2)C3)cc1` [Compound 159, 1-(4-chlorobenzyl)-3-((2r,4s)-6-(4-methylbenzoyl)-6-azaspiro[3.4]octan-2-yl)urea] were, in that order, 8.7 µM and 23.1 µM.
Taken in the same sequence, the figures for `Cc1ccccc1CC(=O)N1CCC(CCCCNC(=O)NCc2ccc(Cl)cc2)CC1` [Compound 313, 1-(4-chlorobenzyl)-3-(4-(1-(2-(o-tolyl)acetyl)piperidin-4-yl)butyl)urea] were 0.7 µM and 1.4 µM.
Taken in the same sequence, the figures for `Cc1ccc(C(=O)N2CC3(CC(NC(=O)NCc4ccc(C(N)=O)cc4)C3)C2)cn1` [Compound 225, 4-((3-(2-(6-methylnicotinoyl)-2-azaspiro[3.3]heptan-6-yl)ureido)methyl)benzamide] were 2.0 µM and 50.8 µM.
Consider `O=C1CC(C(=O)N2CCC(CCCCNC(=O)NCc3ccc(Cl)cc3)CC2)CCN1` (stereo not drawn) [Compound 301, 1-(4-chlorobenzyl)-3-(4-(1-(2-oxopiperidine-4-carbonyl)piperidin-4-yl)butyl)urea], for which the “AC1.4 Human” value in assay [2] (setting [4]) worked out at 2.7 µM. Also, in assay [2] (setting [5]), the EC50 is 26.3 µM.
Consider `CC(C)(C)OC(=O)N1CCC2(CC1)CC2CNC(=O)NCc1cn[nH]c1` (stereo not drawn) [Compound 31, tert-butyl 1-((3-((1H-pyrazol-4-yl)methyl)ureido)methyl)-6-azaspiro[2.5]octane-6-carboxylate], for which, in assay [2] (setting [4]), the “AC1.4 Human” value turned out to be 3.2 µM. In assay [2] (setting [5]), the EC50 stood at 40.1 µM.
With `CC(C)(C)OC(=O)NC1CCC(NC(=O)NCc2ccc(C(N)=O)cc2)CC1` (stereo not drawn) [Compound 12, tert-butyl (4-(3-(4-carbamoylbenzyl)ureido)cyclohexyl)carbamate], in assay [2] (setting [5]), the EC50 was found to be 40 µM.
In the case of `CN(C(=O)CCCCCNC(=O)NCc1ccc(Cl)cc1)c1ccncc1` [Compound 265, 6-(3-(4-chlorobenzyl)ureido)-N-methyl-N-(pyridin-4-yl)hexanamide], the “AC1.4 Human” value in assay [2] (setting [4]) is 0.8 µM. Further, in assay [2] (setting [5]), the EC50 is 1.6 µM.
Taken in the same sequence, the figures for `O=C(NCc1ccc(Cl)cc1)NC1CC2(CC(CNC(=O)c3cn[nH]c3)C2)C1` (stereo not drawn) [Compound 247, N-((6-(3-(4-chlorobenzyl)ureido)spiro[3.3]heptan-2-yl)methyl)-1H-pyrazole-4-carboxamide] were 2.8 µM and 7.9 µM.
Take `CC(C)(C)OC(=O)NC1CC2(CC(NC(=O)NCc3cn[nH]c3)C2)C1` (stereo not drawn) [Compound 10, tert-butyl (6-(3-((1H-pyrazol-4-yl)methyl)ureido)spiro[3.3]heptan-2-yl)carbamate]: in assay [2] (setting [4]), the “AC1.4 Human” value worked out at 5.8 µM. For the same compound, the concentration giving a half-maximal response (EC50) in assay [2] (setting [5]) amounted to 50.7 µM.
For `COc1ccc(CNC(=O)NC2CC3(C2)CC(C(=O)N2CCN(C(C)C)CC2)C3)cc1` (stereo not drawn) [Compound 122, 1-(6-(4-isopropylpiperazine-1-carbonyl)spiro[3.3]heptan-2-yl)-3-(4-methoxybenzyl)urea], the “AC1.4 Human” value in assay [2] (setting [4]) was 5.9 µM. Moreover, the EC50 in assay [2] (setting [5]) is 47.6 µM.
The like results for `COC(=O)C1CCC(S(=O)(=O)N2CC3(CC(NC(=O)NCc4ccc(OC)cc4)C3)C2)CC1` (stereo not drawn) [Compound 131, methyl 4-((6-(3-(4-methoxybenzyl)ureido)-2-azaspiro[3.3]heptan-2-yl)sulfonyl)cyclohexane-1-carboxylate] were, in that order, 17.6 µM and 48.5 µM.
Taken in the same sequence, the figures for `Cc1cnccc1C(=O)N1CC[C@]2(C1)C[C@@H](NC(=O)NCc1ccc(Cl)cc1)C2` [Compound 166, 1-(4-chlorobenzyl)-3-((2r,4s)-6-(3-methylisonicotinoyl)-6-azaspiro[3.4]octan-2-yl)urea] were 14.2 µM and 42.8 µM.
